Measured values as given in patent US5374625A, “Adenine and guanine derivatives for the treatment of hepatitis virus infections” (priority 1990, dated 1994).
In brackets after ≈: the same amount, converted by molar mass.

How the values were obtained:
[1] = system: Human Immonodeficiency Virus (HIV); assay: Antiviral activity against HIV (HTLV-IIIB strain) in MT-4 cells, HIV antigen-positive cells by indirect immunofluorescence; format: cell-based, HTLV-IIIB strain of HIV; settings: Human immunodeficiency virus 1, MT4, 96 h, 4 days
Procedure: Antiviral activity against Human Immonodeficiency Virus (HIV) belonging to RNA virus was examined by the following method: MT-4 cells […] in 0.5 ml of RPMI 1640 culture medium were seeded into 48-well plates, and 50 μl of test compounds were added to various concentrations. The cells were incubated at 37° C. for 2 hours in 5% (v/v) carbondioxide incubator. Then, 50 μl of the HTLV-IIIB strain of HIV (2.5×10^5 to 5×10^5 PFU/ml) was inoculated onto the cells. After 4 days, a part of the cells were applied onto a slide glass and immobilized with acetone. The percentages of HIV antigen-positive MT-4 cells were determined by indirect immunofluorescence assay. As the primary antibody, serum of AIDS patients was used. As the secondary antibody, FITC-labelled anti-human IgG was used.

hepatitis B virus (HBV) = assay: Antiviral activity against hepatitis B virus (HBV), viral DNA synthesis inhibition in HB611 cells; format: cell-based; settings: 360 h, drug concentration required for 50% inhibition of viral DNA synthesis, densitometry, read-out: Anti-HBV activity ID50
Procedure: Antiviral activity against hepatitis B virus (HBV) which is a DNA virus was tested by the following method.
The test was done by using a cell line, HB611, that was established by transfection and continuously produces HBV-like particles [Proc. Natl. Acad. Sci. USA, 84, 444-449, 1987]. HB611 cells were maintained in Dulbecco's modified Eagle medium (Gibco) supplemented with fetal bovine serum (Gibco), 100 μg/ml of streptomycin, […] of benzyl penicillin (Gibco) and 200 μg/ml of geneticin (Gibco) at 37° C. in 5% CO2 -95% air.
The cells were seeded in 24-well plate (Corning) at a density of 3×10^4 cells/well, using 1.0 ml of the medium. After 2 days of incubation, the medium was replaced with the same medium containing the test compound. The cells were incubated for a further 15 days, during which time the medium containing the drug was exchanged every three days. […]
The results which was autoradiographed were analyzed using a densitometric analyzer (Shimadzu, Chromatoscana S930).
To quantitatively evaluate the inhibitory activity of the compounds, there were measured the band areas S, D, D2 (S, D1 and D2 represent intracellular free HBV DNA derived from replicative intermediates) and I (represents chromosomally integrated HBV DNA) by densitometric analyzer, and calculated the inhibition percentage as follows: [formula] […]

[2] = system: Herpes simplex virus (HSV-1); assay: Antiviral activity against Herpes simplex virus (HSV-1), CPE inhibition in Vero cells (Neutral Red); format: cell-based; settings: Human alphaherpesvirus 1, 50% inhibition of CPE, about 72 hours
Procedure: Antiviral activity against Herpes simplex virus (HSV-1) which is a DNA virus was tested by the following method.
Vero cells (originated from kidney cells of African Green Monkey) were cultured in MEM medium supplemented with 10% fetal bovine serum. One hundred μl of cell suspension (200,000 cells/ml) was plated into 96 wells plates (COSTAR) and cultured for 24 hours so that the culture became confluent. The medium was drawn, and cells were infected with HSV-1 virus for one hour. After drawing the virus fluid, cells were cultured for about 72 hours in a fresh medium containing test samples. The survived cells were stained with Neutral Red solution and absorbance at a wavelength of 546 nm (A546) was measured to evaluate the cytopathic effect (CPE).
CPE inhibition (%) was calculated as follows: [formula] Sample concentration required for 50% inhibition of the CPE was calculated as IC50 (μg/ml).

IC50 [1] [µg/mL]	IC50 [2] [µg/mL]	SMILES	also measured
55 (≈ 188 µM)		Nc1ncnc2c1ncn2[C@@H]1C[C@H](CO)[C@@H](CO)C[C@H]1O [Example 13, 9-[(1R,2R,4S,5S)-4,5-Bis(hydroxymethyl)-2-hydroxycyclohexyl]-adenine]	
		Nc1ncnc2c1ncn2[C@@H]1CC[C@H](CO)[C@H]1CO [Example 5, 9-[(1R,2R,3S)-2,3-Bis(hydroxymethyl)-1-cyclopentyl]-adenine]	IC50 (hepatitis B virus (HBV)): 0.24 µg/mL (≈ 0.912 µM)
	45.9 (≈ 148 µM)	Nc1nc2c(ncn2[C@@H]2C[C@H](CO)[C@@H](CO)C[C@H]2O)c(=O)[nH]1 [Example 18, 9-[(1R,2R,4S,5S)-4,5-Bis(hydroxymethyl)-2-hydroxycyclohexyl]-guanine]	
4.5 (≈ 16.2 µM)		Nc1ncnc2c1ncn2[C@H]1CC[C@H](CO)[C@@H](CO)C1 [Example 16, 9-[(1S,3S,4S)-3,4-Bis(hydroxymethyl)-cyclohexyl]-adenine]	
	2.77 (≈ 9.44 µM)	Nc1nc2c(ncn2[C@H]2CC[C@H](CO)[C@@H](CO)C2)c(=O)[nH]1 [Example 21, 9-[(1S,3S,4S)-3,4-Bis(hydroxymethyl)-cyclohexyl]-guanine]	
